Laboratory results as given in patent US6645996B1, “Physiologically active substances” (Mercian Corporation and Eisai Co., Ltd., priority 1998, dated 2003).

Legend:
[1] = tested on: Endothelial cells derived from human umbilical vein (HUVEC); test: Inhibitory effect of growth of endothelial cells (MTT method); format: cell-based; settings: three days
Protocol: Endothelial cells derived from human umbilical vein (HUVEC; manufactured by Sanko Junyaku) incubated in an EGM medium (manufactured by Sanko Junyaku) were adjusted to 1×10^4 cells/ml and each 100 μl were separately placed on a 96-well plate. After incubating overnight, 100 μl of medium containing sample were added thereto followed by incubating for three days. The cell numbers at that time were measured by MTT method. That is, 50 μl of PBS solution containing 0.33% of 3-(4,5-dimethylthiazol-2-yl)-2,5-diphenyltetrazolium bromide (MTT) was added thereto and incubation was continued for further 3-4 hours. After the supernatant liquid of the culture was removed, 100 μl of DMSO was added to dissolve a formazane which was formed in the cells and the absorbance at the wave length of 460 nm was measured by use of plate reader. The IC50 value is defined as a concentration that the absorbance was 50% of that observed when no sample was added.

[2] = Solubility (analysis data); format: physicochemical
aorta pieces of rat = test: Inhibition of capillary formation in rat aorta model (aorta pieces cultured in collagen gel); format: cell-based; settings: 7th day from addition of sample
Protocol: In a method of screening the antiangiogenic effect, the degree of inhibition to the formation of lumens observed when an aortic fragment of a rat is cultured in a collagen gel was selected as an indicator (Nicosia R. F., Lab. Invest., 63, 115, 1990). Also, for the purpose of analyzing the mechanism of action of the antiangiogenic effect of the resulting compound, measurements were made concerning the effect of inhibiting the growth of endothelial cells by using endothelial cells derived from the human umbilical cord vein and the effect of inhibiting the expression of an adhesion molecules on endothelial cells.
The antiangiogenic potency was evaluated by the inhibition of capillary formation in rat aorta model in which aorta pieces of rat were cultured in collagen gel. That is, the aorta excised from male rat of Sprague-Dawley strain (8-12 weeks age) was washed with a Hanks' solution so that fat tissues around there were removed minutely. The aorta was incised to prepare pieces of 2 mm square and they were allowed to stand in a 24-well plate holding the endothelial cells upside. Then, 500 μl of neutralized Type I collagen (Cell Matrix Type I-A; manufactured by Nitta Gelatin) were poured over each well and allowed to stand at room temperature for about 20 minutes in a clean bench to solidify the gel. After gelling, 500 μl of MCDB 131 medium (manufactured by Chlorella Kogyo) were added thereto followed by incubating in a Co2 incubator (5% CO2) at 37° C. On the next day, the culture medium was exchanged with 500 μl of MCDB 131 medium containing the sample and the incubation was continued. And, at the stage of the 7th day from the addition of the sample, numbers of capillaries formed around the aorta were counted. The IC50 value of each sample is defined as a concentration that the number of blood capillaries is 50% of that observed when no sample was added.

[3] = Safety of VD1207 analogues, intraperitoneal administration over 4 days; format: in vivo; design: key to Blood (WBC) / Blood (PLAT) / Biochemistry (UN) / Biochemistry (GPT) / Weight (liver) / Weight (kidney) / Weight (lung) / Weight (spleen) / Body weight / Blood (RBC): —: “-” indicates no abnormality; “↑” and “↓” indicate an increase and a decrease, respectively; “↑” and “↓” indicate an increase and a decrease, respectively
Protocol: Each of VD1207B, C, D, E, F and G2 was continuously administered intraperitoneally at each dose of 1 mg/kg and 2 mg/kg over 4 days to examine the safety of VD1207 analogues.

VCAM-1 = test: Inhibition of TNFα-induced expression of adhesion molecule VCAM-1 on endothelial cells; format: cell-based, human; settings: HUVEC, TNFα 1 ng/ml, 4 hours
Protocol: (§1) Endothelial cells derived from human umbilical vein (HUVEC) were cultured on a 96-well plate until they were fallen in a confluent state. The culture broth was removed. After 150 μl of a new culture broth was added to each well, 20 μl of a sample solution was added thereto. After 15 minutes, 30 μl of TNFα was added such that the final concentration became 1 ng/ml and it was incubated at 37° C. for 4 hours in a 5% CO2 incubator. Next, the culture broth was removed and the cells were washed twice with a phosphate buffer (PBS). Further, a PBS solution containing 0.025% glutaraldehyde was added and the well was allowed to stand at room temperature for 6 minutes to fix the cells. After the cells were immobilized, they were washed twice with 200 μl of phosphate buffer (PBSA) containing 0.25% BSA. Thereafter 100 μl of a PBSA solution containing 1 μg/ml of mouse anti-human VCAM-1 (R&D systems) or a mouse anti-human E-selectin antibody (R&D systems) was added to each well. The well was allowed to stand at room temperature for 30 minutes and then the cells were again washed. A PBSA solution containing 100 μl of peroxidase-conjugated goat anti-mouse antibody (Cosmo Bio Co., Ltd.) was added to the well. Then the well was allowed to stand at room temperature for 30 minutes and thereafter the cells were washed. In succession, 100 μl of 3,3*,5,5*-tetramethylbenzyidine (TMB) substrate solution was added to develop a color. Next, the coloring was stopped by 100 μl of 1M phosphoric acid to measure the absorbance at 450 nm.

E-selectin = test: Inhibition of TNFα-induced expression of adhesion molecule E-selectin on endothelial cells; format: cell-based, human; settings: HUVEC, TNFα 1 ng/ml, 4 hours
Protocol: as §1

[4] = 2 mg/kg i.p. 4 days, listed as F
[5] = 1 mg/kg i.p. 4 days, listed as B
[6] = 2 mg/kg i.p. 4 days, listed as B
[7] = 2 mg/kg i.p. 4 days, listed as E

Compound	Solubility in ethyl acetate, chloroform and dimethyl sulfoxide [2]	Solubility in neutral water [2]	IC50 (number of blood capillaries 50% of that without sample) (aorta pieces of rat) [µg/mL]	IC50 (growth of endothelial cells, absorbance 50% of no sample) [1] [µg/mL]	Biochemistry (GPT) ([3]; 1 mg/kg i.p. 4 days)	Biochemistry (UN) ([3]; 1 mg/kg i.p. 4 days)	Blood (PLAT) ([3]; 1 mg/kg i.p. 4 days)	Blood (RBC) ([3]; 1 mg/kg i.p. 4 days)	Blood (WBC) ([3]; 1 mg/kg i.p. 4 days)	Body weight ([3]; 1 mg/kg i.p. 4 days)	Weight (liver) ([3]; 1 mg/kg i.p. 4 days)	Weight (lung) ([3]; 1 mg/kg i.p. 4 days)	Weight (spleen) ([3]; 1 mg/kg i.p. 4 days)	Biochemistry (GPT) ([3]; 2 mg/kg i.p. 4 days)	Biochemistry (UN) ([3]; 2 mg/kg i.p. 4 days)	Blood (PLAT) ([3]; 2 mg/kg i.p. 4 days)	Blood (RBC) ([3]; 2 mg/kg i.p. 4 days)	Blood (WBC) ([3]; 2 mg/kg i.p. 4 days)	Weight (liver) ([3]; 2 mg/kg i.p. 4 days)	Weight (spleen) ([3]; 2 mg/kg i.p. 4 days)	other results
CCC1OC12C(O)CC(C(CC(C)C)C(=O)c1cc(C(=O)C(C)C)c(O)cc1O)OC2O (single isomer, unassigned) [VD1207 A1]	soluble	insoluble																			IC50 (growth of endothelial cells, absorbance 50% of no sample) ([1]; listed as A1): 17.6 µg/mL
CCC1OC12C(O)CC(C(CC(C)C)C(=O)c1cc(C(=O)C(C)C)c(O)cc1O)OC2O (single isomer, unassigned) [VD1207 A2]	soluble	insoluble	1																		IC50 (growth of endothelial cells, absorbance 50% of no sample) ([1]; listed as A2): 18.7 µg/mL
CCC1OC12C(O)CC(C(CC(C)C)C(=O)c1cc(CC(C)C)c(O)c(C=O)c1O)OC2O (stereo not drawn) [VD1207 G2]	soluble	insoluble	0.034	0.07	—	—	—	—	—	—	↑	—	—	—	—	—	—	↓	↑	—	Weight (kidney) ([3]; 1 mg/kg i.p. 4 days): —; Body weight ([3]; 2 mg/kg i.p. 4 days): —; Weight (kidney) ([3]; 2 mg/kg i.p. 4 days): —; Weight (lung) ([3]; 2 mg/kg i.p. 4 days): —
CCC1OC12C(O)CC(C(CC(C)C)C(=O)c1cc(C(OC)C(C)C)c(O)c(C=O)c1O)OC2O (single isomer, unassigned) [VD1207 F]	soluble	insoluble							—			—		—	—	—	—	↓	↑	—	IC50 (number of blood capillaries 50% of that without sample) (aorta pieces of rat; listed as F): 0.067 µg/mL; IC50 (growth of endothelial cells, absorbance 50% of no sample) ([1]; listed as F): 0.06 µg/mL; VCAM-1 (IC50 of expression) (VCAM-1; listed as F): <0.63 µg/mL; E-select (IC50 of expression) (E-selectin; listed as F): 0.84 µg/mL; Weight of each of the liver, kidney and lung (autoptic findings) ([3]; 1 mg/kg and 2 mg/kg i.p. 4 days): increase; Weight (kidney) ([3]; 1 mg/kg i.p. 4 days, listed as F): ↑; Body weight ([3]; 2 mg/kg i.p. 4 days): —; Weight (kidney) [3, 4]: ↑; Weight (lung) [3, 4]: ↑
CCCC(C(=O)c1cc(C(OC)C(C)C)c(O)c(C=O)c1O)C1CC(O)C2(OC2CC)C(O)O1 (single isomer, unassigned) [VD1207 B]	soluble	insoluble			—	—	—	—	—	—	↑		—	—	—		—	—	↑	—	IC50 (number of blood capillaries 50% of that without sample) (aorta pieces of rat; listed as B): 0.053 µg/mL; IC50 (growth of endothelial cells, absorbance 50% of no sample) ([1]; listed as B): 0.24 µg/mL; VCAM-1 (IC50 of expression) (VCAM-1): 2.48 µg/mL; E-select (IC50 of expression) (E-selectin): 4.0 µg/mL; Weight (kidney) [3, 5]: —; Weight (lung) [3, 5]: —; Blood (PLAT) [3, 6]: —; Body weight [3, 6]: —; Weight (kidney) [3, 6]: —; Weight (lung) [3, 6]: —
CCCC(C(=O)c1cc(CC(C)C)c(O)c(C=O)c1O)C1CC(O)C2(OC2CC)C(O)O1 (stereo not drawn) [VD1207 D]	soluble	insoluble	0.019	0.18	—	—	—	—	—	—	↑	—	—	—	—	—	—	—	↑	—	VCAM-1 (IC50 of expression) (VCAM-1): 1.11 µg/mL; E-select (IC50 of expression) (E-selectin): 1.40 µg/mL; Weight (kidney) ([3]; 1 mg/kg i.p. 4 days): —; Body weight ([3]; 2 mg/kg i.p. 4 days): —; Weight (kidney) ([3]; 2 mg/kg i.p. 4 days): —; Weight (lung) ([3]; 2 mg/kg i.p. 4 days): —
CCCC(C(=O)c1cc(CC(C)C)c(O)c(C(C)=O)c1O)C1CC(O)C2(OC2CC)C(O)O1 (stereo not drawn) [VD1207 H]	soluble	insoluble	0.38	0.52																	VCAM-1 (IC50 of expression) (VCAM-1): 1.06 µg/mL; E-select (IC50 of expression) (E-selectin): 2.48 µg/mL
CCCC(C(=O)c1cc(CC(C)C)c(O)c(C=O)c1O)C1CC(O)C2(OC2CCC)C(O)O1 (stereo not drawn) [VD1207 G1]	soluble	insoluble	0.070	0.11																	
CCC1OC12C(O)CC(C(CC(C)C)C(=O)c1cc(C(OC)C(C)C)c(O)c(C=O)c1O)OC2O (single isomer, unassigned) [VD1207 E]	soluble	insoluble			—	—	—	—	—	—	↑	—	—					↓			IC50 (number of blood capillaries 50% of that without sample) (aorta pieces of rat; listed as E): 0.047 µg/mL; IC50 (growth of endothelial cells, absorbance 50% of no sample) ([1]; listed as E): 0.21 µg/mL; VCAM-1 (IC50 of expression) (VCAM-1; listed as E): 2.59 µg/mL; E-select (IC50 of expression) (E-selectin; listed as E): 4.44 µg/mL; Weight (kidney) ([3]; 1 mg/kg i.p. 4 days, listed as E): —; Weight (kidney) [3, 7]: —; Weight (lung) [3, 7]: —
